According to patent publication US12497402B2, “IRAK4 degraders and uses thereof” (priority 2021, dated 2025):
Where “and” joins values, the source holds several entries; their conditions need not be identical. Equal values may be shown once. Each block holds one molecule with its values, some of them ahead of it.

What was measured:
[1] = tested on: MSU-crystal induced (TLR 2/4-dependent) inflammation; assay: Mouse air pouch model of MSU-crystal induced inflammation; format: in vivo; conditions: 3 days twice daily, 30 to 100 mg/kg
Permeability = format: in vitro ADME
[2] = Distribution studies in rats; format: in vivo, rat
[3] = In vivo pharmacokinetic studies in rats, dogs and monkeys
[4] = tested on: imiquimod psoriasis model (TLR 7/8-dependent); assay: Imiquimod psoriasis model; format: in vivo, mouse
Plasma protein binding = format: in vitro ADME; conditions: across nonclinical species and humans
P-glycoprotein (P-gp) = P-glycoprotein (P-gp) (Homo sapiens, UniProt P08183); assay: P-gp substrate assessment in vitro; format: in vitro ADME
Solubility = format: physicochemical
[5] = tested on: TLR agonist (lipopolysaccharide and R848) and IL-1β-induced proinflammatory cytokine production; assay: In vitro cytokine release assays in PBMCs; format: cell-based; conditions: R848 and IL-1β stimulation, IL-6, TNF-α, GM-CSF, IL-8
CYP2C19 = CYP2C19 (Homo sapiens, UniProt P33261); assay: In vitro drug-drug interaction study, CYP2C19; format: in vitro ADME
[6] = Red blood cell partitioning; format: in vitro ADME
BCRP = molecular target: T1, BCRP (Homo sapiens, UniProt Q9UNQ0); assay: In vitro drug-drug interaction study, BCRP efflux; format: in vitro ADME
T1 sequence (Q9UNQ0 1-655): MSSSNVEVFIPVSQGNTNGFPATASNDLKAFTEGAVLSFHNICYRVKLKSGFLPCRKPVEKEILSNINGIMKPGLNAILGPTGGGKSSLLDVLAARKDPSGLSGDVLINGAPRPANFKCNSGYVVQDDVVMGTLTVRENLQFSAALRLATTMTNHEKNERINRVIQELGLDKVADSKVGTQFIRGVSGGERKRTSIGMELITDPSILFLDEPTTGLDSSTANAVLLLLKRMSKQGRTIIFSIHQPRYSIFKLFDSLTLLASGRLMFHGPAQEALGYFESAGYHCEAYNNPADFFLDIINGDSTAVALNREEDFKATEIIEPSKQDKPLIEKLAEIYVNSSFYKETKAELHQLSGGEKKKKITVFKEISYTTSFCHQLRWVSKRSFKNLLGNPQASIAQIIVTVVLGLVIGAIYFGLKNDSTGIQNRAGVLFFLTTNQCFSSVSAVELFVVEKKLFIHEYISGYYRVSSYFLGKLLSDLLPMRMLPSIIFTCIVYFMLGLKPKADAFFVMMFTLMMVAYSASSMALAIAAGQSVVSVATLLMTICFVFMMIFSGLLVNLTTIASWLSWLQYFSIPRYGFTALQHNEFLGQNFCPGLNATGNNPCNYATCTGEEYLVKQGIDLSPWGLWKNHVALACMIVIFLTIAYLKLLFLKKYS

[7] = Excretion study in bile duct-cannulated (BDC) rats; format: in vivo, rat
CYP3A4 = CYP3A4 (Homo sapiens, UniProt P08684); assay: In vitro drug-drug interaction study, CYP3A4; format: in vitro ADME
[8] = 4-week oral gavage toxicokinetic study with Compound A in dogs (plasma); conditions: dog
Source text: The vehicle was HPBCD (Kleptose Oral Grade HPB) prepared in reverse osmosis water.
Assessment of toxicity was based on mortality, clinical observations, body weights, food consumption, ophthalmic observations, electrocardiographic (ECG) measurements, and clinical and anatomic pathology. Blood samples were collected for toxicokinetic evaluation.

cytochrome P450 (CYP) = assay: In vitro and in vivo metabolism studies; format: in vitro ADME
[9] = molecular target: T2, breast cancer resistance protein (BCRP) (Homo sapiens, UniProt Q9UNQ0); assay: BCRP substrate assessment in vitro; format: in vitro ADME
T2 sequence (Q9UNQ0 1-655): T1 sequence (Q9UNQ0 1-655)

[10] = 4-week oral gavage toxicity study with Compound A in dogs with 2-week recovery; format: in vivo; conditions: for Reversal of vacuolated macrophages at recovery sacrifice: 30 or 200/60 mg/kg/dose
[11] = both, beagle, in vivo, po, 5 mg/kg, Tmax
[12] = both, beagle, in vivo, po, 30 mg/kg, Tmax
[13] = both, beagle, in vivo, po, 60 mg/kg, Tmax
[14] = both, beagle, in vivo, po, 60 mg/kg/day, median Tmax
[15] = both, beagle, in vivo, po, 100 mg/kg, Tmax
[16] = both, beagle, in vivo, po, 200 mg/kg, Tmax
[17] = both, beagle, in vivo, po, median Tmax
[18] = both, beagle, in vivo, po, 5 mg/kg, t1/2

Sequence of CYP2C19 (P33261 whole entry): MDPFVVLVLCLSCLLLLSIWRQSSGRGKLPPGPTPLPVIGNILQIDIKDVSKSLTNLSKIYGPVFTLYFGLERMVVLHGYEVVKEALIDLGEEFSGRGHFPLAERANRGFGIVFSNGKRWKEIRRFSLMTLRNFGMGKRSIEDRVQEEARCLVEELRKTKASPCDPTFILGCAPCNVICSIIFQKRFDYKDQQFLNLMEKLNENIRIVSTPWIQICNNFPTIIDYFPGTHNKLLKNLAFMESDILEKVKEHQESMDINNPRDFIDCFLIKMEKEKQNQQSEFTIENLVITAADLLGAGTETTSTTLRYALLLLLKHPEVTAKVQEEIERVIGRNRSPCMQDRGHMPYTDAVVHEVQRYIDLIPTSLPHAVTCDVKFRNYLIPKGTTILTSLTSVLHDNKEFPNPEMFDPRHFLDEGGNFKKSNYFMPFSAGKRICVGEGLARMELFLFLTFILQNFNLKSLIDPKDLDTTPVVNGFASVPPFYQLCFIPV
Sequence of P-glycoprotein (P-gp) (P08183 whole entry): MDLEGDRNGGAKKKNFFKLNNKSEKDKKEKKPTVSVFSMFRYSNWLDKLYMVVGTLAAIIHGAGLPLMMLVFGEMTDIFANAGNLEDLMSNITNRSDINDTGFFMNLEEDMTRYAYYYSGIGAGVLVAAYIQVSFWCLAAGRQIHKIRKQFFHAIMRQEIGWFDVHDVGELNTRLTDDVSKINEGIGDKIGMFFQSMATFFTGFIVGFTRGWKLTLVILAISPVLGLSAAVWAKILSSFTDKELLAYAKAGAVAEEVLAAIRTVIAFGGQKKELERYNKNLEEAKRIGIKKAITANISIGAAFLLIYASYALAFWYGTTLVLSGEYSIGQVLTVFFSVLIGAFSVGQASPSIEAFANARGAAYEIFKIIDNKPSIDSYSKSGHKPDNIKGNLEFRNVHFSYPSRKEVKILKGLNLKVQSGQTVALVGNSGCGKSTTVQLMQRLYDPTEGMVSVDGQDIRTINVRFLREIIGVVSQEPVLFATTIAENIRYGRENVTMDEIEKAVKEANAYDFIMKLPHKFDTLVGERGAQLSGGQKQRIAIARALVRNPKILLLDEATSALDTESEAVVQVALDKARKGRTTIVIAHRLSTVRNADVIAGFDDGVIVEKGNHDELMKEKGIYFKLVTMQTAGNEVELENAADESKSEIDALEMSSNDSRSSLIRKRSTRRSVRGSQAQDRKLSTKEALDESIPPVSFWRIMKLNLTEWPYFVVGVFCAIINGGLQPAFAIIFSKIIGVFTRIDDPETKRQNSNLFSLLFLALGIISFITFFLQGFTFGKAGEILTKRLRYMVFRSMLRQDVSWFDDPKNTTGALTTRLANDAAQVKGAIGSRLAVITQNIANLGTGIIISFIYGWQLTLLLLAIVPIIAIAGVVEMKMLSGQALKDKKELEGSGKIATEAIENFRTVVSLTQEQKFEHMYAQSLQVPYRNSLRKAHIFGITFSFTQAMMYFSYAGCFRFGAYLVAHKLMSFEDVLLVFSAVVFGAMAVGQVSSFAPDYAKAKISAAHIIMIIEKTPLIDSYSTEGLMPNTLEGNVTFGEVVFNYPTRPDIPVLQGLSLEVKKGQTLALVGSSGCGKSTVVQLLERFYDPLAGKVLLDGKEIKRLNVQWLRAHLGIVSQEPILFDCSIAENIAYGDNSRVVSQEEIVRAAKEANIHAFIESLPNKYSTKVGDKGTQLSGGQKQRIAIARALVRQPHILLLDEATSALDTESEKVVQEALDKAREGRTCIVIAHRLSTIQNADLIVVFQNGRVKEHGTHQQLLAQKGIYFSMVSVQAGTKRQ
Sequence of CYP3A4 (P08684 whole entry): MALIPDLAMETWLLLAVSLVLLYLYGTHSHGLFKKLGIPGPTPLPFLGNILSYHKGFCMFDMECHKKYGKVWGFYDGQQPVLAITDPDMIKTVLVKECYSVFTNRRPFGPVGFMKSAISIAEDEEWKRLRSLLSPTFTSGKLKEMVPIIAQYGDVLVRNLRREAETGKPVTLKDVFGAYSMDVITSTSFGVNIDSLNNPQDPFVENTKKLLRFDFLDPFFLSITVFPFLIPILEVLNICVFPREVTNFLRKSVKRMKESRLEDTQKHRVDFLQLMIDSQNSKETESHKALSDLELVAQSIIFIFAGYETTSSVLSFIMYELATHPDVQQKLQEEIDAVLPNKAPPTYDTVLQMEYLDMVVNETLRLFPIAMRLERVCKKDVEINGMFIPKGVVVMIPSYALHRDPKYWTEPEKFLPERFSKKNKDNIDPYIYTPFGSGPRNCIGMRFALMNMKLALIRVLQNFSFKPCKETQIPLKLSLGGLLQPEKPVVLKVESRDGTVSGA

Structure (SMILES): Cn1c(=O)n(C2CCC(=O)NC2=O)c2cccc(C#CCOC3CCN(C[C@H]4CC[C@H](n5cc(NC(=O)c6cnn7ccc(N8C[C@H]9C[C@@H]8CO9)nc67)c(C(F)F)n5)CC4)CC3)c21 (stereo partly drawn) [Compound A, 5-((1R,4R)-2-oxa-5-azabicyclo[2.2.1]heptan-5-yl)-N-(3-(difluoromethyl)-1-((1r,4R)-4-((4-((3-(1-(2,6-dioxopiperidin-3-yl)-3-methyl-2-oxo-2,3-dihydro-1H-benzo[d]imidazol-4-yl)prop-2-yn-1-yl)oxy)piperidin-1-yl)methyl)cyclohexyl)-1H-pyrazol-4-yl)pyrazolo[1,5-a]pyrimidine-3-carboxamide]
IRAK4 levels in the spleen [1]: significantly reduced IRAK4 levels in the spleen
Inflammatory exudate (neutrophils, IL-1β) [1]: significantly reduced the inflammatory exudate
Permeability (Permeability): moderate permeability
CNS penetration [2]: limited penetration into the central nervous system (CNS)
Tissue distribution [2]: extensively distributed into tissues
Bioavailability [3]: low to moderate bioavailability
Clearance [3]: moderate to high clearance
Terminal half-life [3]: moderate terminal half-life
Volume of distribution at steady state [3]: high volume of distribution at steady state
IRAK4 degradation in spleen and skin ([4]; mouse, in vivo): dose-dependent degradation of IRAK4 in the spleen and skin
Skin thickness ([4]; mouse, in vivo): reduction in skin thickness
IL-1β in the skin ([4]; p<0.0001): significant reduction
IL-6 in the skin ([4]; p<0.05, 300 mg/kg only): significant reduction
Plasma protein binding (Plasma protein binding): highly bound to plasma proteins
P-gp substrate status (P-glycoprotein (P-gp)): substrate
Solubility (Solubility): low solubility
IC50 (inhibition of proinflammatory cytokine production) [5]: low nM range
Inhibition of CYP2C19 (CYP2C19): potential time dependent inhibition (TDI)
Partitioning into red blood cells [6]: did not significantly partition into red blood cells
Inhibition of BCRP efflux (BCRP): inhibited BCRP efflux
Biliary and intestinal excretion [7]: minor to moderate biliary and intestinal excretion as parent drug
Renal clearance [7]: negligible renal clearance
Inhibition of CYP3A4 (CYP3A4): potential time dependent inhibition (TDI)
half-life ([8]; beagle, plasma, po, 30 mg/kg, t1/2, elimination half-life, N = 1, dog plasma, Day 1, Group 3, Cmpd A 30 mg/kg/dose oral gavage): 6.54 h
Potential accumulation after multiple doses ([8]; both, beagle, in vivo): up to 2.14 fold
Sex differences in mean Cmax and AUC0-24 values ([8]; both, beagle, in vivo): less than 2 fold
median Tmax ([8]; both, beagle, in vivo, po): 5.00 to 12.0 h
Tmax [8, 11]: 4 h
Tmax [8, 12]: 5 h and 4 h
Tmax [8, 13]: 6 h
Tmax [8, 14]: 6 h
Tmax [8, 15]: 9 h
Tmax [8, 16]: 12 h
Tmax [8, 17]: 5 to 9 h
half-life ([8]; both, beagle, plasma, po, 5 mg/kg, t1/2, mean elimination half-life, dog plasma, Day 1, Group 2, Cmpd A 5 mg/kg/dose oral gavage): 7.6 h
half-life ([8]; both, beagle, plasma, po, 5 mg/kg, t1/2, mean elimination half-life, dog plasma, Day 8, Group 2, Cmpd A 5 mg/kg/dose oral gavage): 8.08 h
half-life ([8]; both, beagle, plasma, po, 5 mg/kg, t1/2, mean elimination half-life, dog plasma, Day 28, Group 2, Cmpd A 5 mg/kg/dose oral gavage): 8.19 h
half-life ([8]; both, beagle, plasma, po, mean half-life (t1/2), dog plasma, Day 1, range across groups): 6.54 to 7.6 h
Dose proportionality of increases in mean Cmax and AUC0-24 ([8]; in vivo): less than dose proportional
Main metabolizing enzyme (cytochrome P450 (CYP)): primarily metabolized by CYP3A4
Metabolic pathway (cytochrome P450 (CYP); in vitro and in vivo): underwent oxidative metabolism via cytochrome P450 (CYP)
BCRP substrate status [9]: substrate
NOAEL at 4 weeks ([10]; both sexes, beagle, dog, in vivo, dogs, oral gavage once daily, 4 weeks, read-out: no observed adverse effect level (NOAEL)): 60 mg/kg/day
Body weight, body weight gain, food consumption ([10]; dog, in vivo): No Compound A-related alterations in mean body weight, body weight gain, or food consumption were noted at any dose level
Clinical and ophthalmic observations ([10]; dog, in vivo): No Compound A-related clinical observations or abnormal ophthalmic observations were noted
ECG observation ([10]; dog, in vivo): No Compound A-related abnormalities were noted during the dosing phase ECG observation
Hematology, coagulation, clinical chemistry, urinalysis ([10]; dog, in vivo): No Compound A-related effects in scheduled hematology, coagulation, clinical chemistry, or urinalysis test results were identified
Organ weights and macroscopic observations ([10]; dog, in vivo): No Compound A-related organ weight differences or macroscopic observations were noted
Microscopic findings (vacuolated macrophages) ([10]; dog, in vivo, 30 mg/kg): increases of vacuolated macrophages in the small intestine, lymphoid tissues, and lung were considered nonadverse
Mortality ([10]; female, beagle, dog, in vivo, 100 mg/kg, 4 day (of dosing phase)): One female administered 100 mg/kg/dose was sacrificed in a moribund condition on Day 4 of the dosing phase
Reversal of vacuolated macrophages at recovery sacrifice ([10]; mesenteric lymph node): lack of reversal after 2 weeks
Reversal of vacuolated macrophages at recovery sacrifice ([10]; small intestine, GALT/Peyer's patches, mandibular lymph nodes, lung, 2-week recovery): partial reversal
Reversal of vacuolated macrophages at recovery sacrifice ([10]; spleen, 2-week recovery): complete reversal

Potential accumulation after multiple doses ([8]; both, beagle, in vivo): ≤ 1.98 fold
Sex differences in mean Cmax and AUC0-24 values ([8]; both, beagle, in vivo): less than 2 fold
Tmax [8, 11]: 4 h
half-life [8, 18]: 7.6 h
Tmax [8, 12]: 4 h
Tmax [8, 13]: 4 h
Tmax [8, 14]: 4 h
Tmax [8, 15]: 6 h
Tmax [8, 17]: 6 to 9 h
Dose proportionality of increases in mean Cmax and AUC0-24 ([8]; in vivo): less than dose proportional
Structure (SMILES): Cn1c(=O)n([C@H]2CCC(=O)NC2=O)c2cccc(C#CCOC3CCN(C[C@H]4CC[C@H](n5cc(NC(=O)c6cnn7ccc(N8C[C@H]9C[C@@H]8CO9)nc67)c(C(F)F)n5)CC4)CC3)c21 [Compound B, 5-((1R,4R)-2-oxa-5-azabicyclo[2.2.1]heptan-5-yl)-N-(3-(difluoromethyl)-1-((1r,4R)-4-((4-((3-(1-((S)-2,6-dioxopiperidin-3-yl)-3-methyl-2-oxo-2,3-dihydro-1H-benzo[d]imidazol-4-yl)prop-2-yn-1-yl)oxy)piperidin-1-yl)methyl)cyclohexyl)-1H-pyrazol-4-yl)pyrazolo[1,5-a]pyrimidine-3-carboxamide]

Potential accumulation after multiple doses ([8]; both, beagle, in vivo): ≤ 1.86 fold
Sex differences in mean Cmax and AUC0-24 values ([8]; both, beagle, in vivo): less than 2 fold
Tmax [8, 11]: 4 h
half-life [8, 18]: 7.65 h
Tmax [8, 12]: 4 h
Tmax [8, 13]: 4 h
Tmax ([8]; both, beagle, in vivo, po, 60 mg/kg, median Tmax): 4 h
Tmax [8, 15]: 6 h
Tmax [8, 16]: 4 h
Tmax [8, 17]: 6 h
Dose proportionality of increases in mean Cmax and AUC0-24 ([8]; in vivo): less than dose proportional
Structure (SMILES): Cn1c(=O)n([C@@H]2CCC(=O)NC2=O)c2cccc(C#CCOC3CCN(C[C@H]4CC[C@H](n5cc(NC(=O)c6cnn7ccc(N8C[C@H]9C[C@@H]8CO9)nc67)c(C(F)F)n5)CC4)CC3)c21 [Compound C, 5-((1R,4R)-2-oxa-5-azabicyclo[2.2.1]heptan-5-yl)-N-(3-(difluoromethyl)-1-((1r,4R)-4-((4-((3-(1-((R)-2,6-dioxopiperidin-3-yl)-3-methyl-2-oxo-2,3-dihydro-1H-benzo[d]imidazol-4-yl)prop-2-yn-1-yl)oxy)piperidin-1-yl)methyl)cyclohexyl)-1H-pyrazol-4-yl)pyrazolo[1,5-a]pyrimidine-3-carboxamide]
